Results on 25 molecules are retold here after US4073892A, “N^2 -alkoxynaphthylsulfonyl-L-argininamides and the pharmaceutically acceptable salts thereof” (Mitsubishi Chemical Industries Limited, priority 1974, dated 1978).

The target of one data set is T1, thrombin (Bos taurus, UniProt P00735).
T1 construct: purchased Mochida Pharmaceutical Co., Ltd
In words: fibrinogen coagulation time (antithrombotic activity). The data set is classed as biochemical. To be noted: bovine fibrinogen, thrombin solution 5 units/ml, borate saline buffer pH 7.4, 25° C; normal coagulation time 50-55 seconds. Here is the method:
Immediately after mixing, the reaction mixture was transferred from the ice bath to a bath maintained at 25° C. Coagulation times were taken as the period between the time of transference to the 25° C bath and the time of the first appearance of fibrin threads.
The term "concentration required to prolong the coagulation time by a factor of two" is the concentration of an active ingredient required to prolong the normal coagulation time 50-55 seconds to 100-110 seconds.
As for `CCCN(CC(=O)O)C(=O)[C@H](CCCNC(=N)N)NS(=O)(=O)c1ccc2cc(OC)c(OC)cc2c1` [Sample 1, N^2-(6,7-dimethoxy-2-naphthylsulfonyl)-L-arginyl-N-propylglycine], the “Concentration Required to Prolong The Coagulation Time By A Factor of Two” value (“Concentration Required” for short) is 8 µM.

Take `CCCCN(CC(=O)O)C(=O)[C@H](CCCNC(=N)N)NS(=O)(=O)c1ccc2cc(OC)c(OC)cc2c1` [Sample 3, N^2-(6,7-dimethoxy-2-naphthylsulfonyl)-L-arginyl-N-butylglycine]: the “Concentration Required” value worked out at 0.3 µM. The same measure, in the same setting: with `COc1cc2ccc(S(=O)(=O)N[C@@H](CCCNC(=N)N)C(=O)N(CC(=O)O)CC(C)C)cc2cc1OC` [Sample 5, N^2-(6,7-dimethoxy-2-naphthylsulfonyl)-L-arginyl-N-isobutylglycine] the figure was 2 µM; with `CCCCCN(CC(=O)O)C(=O)[C@H](CCCNC(=N)N)NS(=O)(=O)c1ccc2cc(OC)c(OC)cc2c1` [Sample 7, N^2-(6,7-dimethoxy-2-naphthylsulfonyl)-L-arginyl-N-pentylglycine], 5 µM; with `CCCCCCN(CC(=O)O)C(=O)[C@H](CCCNC(=N)N)NS(=O)(=O)c1ccc2cc(OC)c(OC)cc2c1` [Sample 9, N^2-(6,7-dimethoxy-2-naphthylsulfonyl)-L-arginyl-N-hexylglycine], 1.5 µM. On to `COCCN(CC(=O)O)C(=O)[C@H](CCCNC(=N)N)NS(=O)(=O)c1ccc2cc(OC)c(OC)cc2c1` [Sample 13, N^2-(6,7-dimethoxy-2-naphthylsulfonyl)-L-arginyl-N-(2-methoxyethyl)glycine], for which the “Concentration Required” value was found to be 0.5 µM. Consider `CCOC(=O)CN(CCOC)C(=O)[C@H](CCCNC(=N)N)NS(=O)(=O)c1ccc2cc(OC)c(OC)cc2c1` [Sample 14, N^2-(6,7-dimethoxy-2-naphthylsulfonyl)-L-arginyl-N-(2-methoxyethyl)glycine ethyl ester], for which the “Concentration Required” value came out at 1.5 µM. On the same count and under the same terms, the figure for `COCCN(CCC(=O)O)C(=O)[C@H](CCCNC(=N)N)NS(=O)(=O)c1ccc2cc(OC)c(OC)cc2c1` [Sample 15, N^2-(6,7-dimethoxy-2-naphthylsulfonyl)-L-arginyl-N-(2-methoxyehtyl)-β-alanine] is 2.5 µM; for `COCCN(CCCC(=O)O)C(=O)[C@H](CCCNC(=N)N)NS(=O)(=O)c1ccc2cc(OC)c(OC)cc2c1` [Sample 17, N^2-(6,7-dimethoxy-2-naphthylsulfonyl)-N-(2-methoxyethyl)-N-(3-carboxypropyl)-L-argininamide] it is 2.5 µM. On the same count and under the same terms, with `COCCCN(CC(=O)O)S(=O)(=O)c1ccc2cc(OC)c(OC)cc2c1` [Sample 19, N^2-(6,7-dimethoxy-2-naphthylsulfonyl)-N-(3-methoxypropyl)glycine] the figure was 5 µM; with `CCOCCN(CCC(=O)O)C(=O)[C@H](CCCNC(=N)N)NS(=O)(=O)c1ccc2cc(OC)c(OC)cc2c1` [Sample 21, N^2-(6,7-dimethoxy-2-naphthylsulfonyl)-L-arginyl-N-(2-ethoxyethyl)-β-alanine], 4 µM; with `COCCN(CC(=O)O)C(=O)[C@H](CCCNC(=N)N)NS(=O)(=O)c1cc(OC)c2cc(OC)ccc2c1` [Sample 23, N^2-(4,6-dimethoxy-2-naphthylsulfonyl)-L-arginyl-N-(2-methoxyethyl)glycine], 4 µM. In the case of `CCCCN(CC(=O)O)C(=O)[C@H](CCCNC(=N)N)NS(=O)(=O)c1cc(OC)c2cc(OC)ccc2c1` [Sample 25, N^2-(4,6-dimethoxy-2-naphthylsulfonyl)-L-arginyl-N-butylglycine], the “Concentration Required” value was determined as 2 µM. For the molecule `CCOc1cc2ccc(S(=O)(=O)N[C@@H](CCCNC(=N)N)C(=O)N(CCOC)CC(=O)O)cc2cc1OCC` [Sample 27, N^2-(6,7-diethoxy-2-naphthylsulfonyl)-L-arginyl-N-(2-methoxyethyl) glycine], the “Concentration Required” value is 15 µM. On the same count and under the same terms, the figure for `CCCCN(CC(=O)O)C(=O)[C@H](CCCNC(=N)N)NS(=O)(=O)c1ccc2cc(OC)ccc2c1` [Sample 31, N^2-(6-methoxy-2-naphthylsulfonyl)-L-arginyl-N-butylglycine] is 0.5 µM; for `COCCN(CC(=O)O)C(=O)[C@H](CCCNC(=N)N)NS(=O)(=O)c1ccc2ccc(OC)cc2c1` [Sample 35, N^2-(7-methoxy-2-naphthylsulfonyl)-L-arginyl-N-(2-methoxyethyl)glycine] it is 0.5 µM. The same measure, in the same setting: with `CCCCN(CC(=O)O)C(=O)[C@H](CCCNC(=N)N)NS(=O)(=O)c1ccc2ccc(OC)cc2c1` [Sample 39, N^2-(7-methoxy-2-naphthylsulfonyl)-L-arginyl-N-butylglycine] the figure was 0.5 µM; with `COCCN(CC(=O)O)C(=O)[C@H](CCCNC(=N)N)NS(=O)(=O)c1cccc2c(OC)cccc12` [Sample 43, N^2-(5-methoxy-1-naphthylsulfonyl)-L-arginyl-N-(2-methoxyethyl) glycine], 2.5 µM.

Turning to `CCOC(=O)CCN(CC(=O)O)C(=O)[C@H](CCCNC(=N)N)NS(=O)(=O)c1ccc2cc(OC)c(OC)cc2c1` [Sample 49, N^2-(6,7-dimethoxy-2-naphthylsulfonyl)-L-arginyl-N-(2-ethoxycarbonylethyl)glycine], the “Concentration Required” value came out at 6.5 µM.

In the case of `CCCCCCCCOC(=O)CN(CCOC)C(=O)[C@H](CCCNC(=N)N)NS(=O)(=O)c1ccc2cc(OC)c(OC)cc2c1` [Sample 50, N^2-(6,7-dimethoxy-2-naphthylsulfonyl)-L-arginyl-N-(2-methoxyethyl)glycine octyl ester], the “Concentration Required” value came out at 2 µM. For `COCCN(CC(=O)Oc1cccc(C)c1)C(=O)[C@H](CCCNC(=N)N)NS(=O)(=O)c1ccc2cc(OC)c(OC)cc2c1` [Sample 52, N^2-(6,7-dimethoxy-2-naphthylsulfonyl)-L-arginyl-N-(2-methoxyethyl) glycine m-tolyl ester], the “Concentration Required” value was 20 µM. On the same count and under the same terms, with `COCCN(CC(=O)Oc1ccc2c(c1)CCC2)C(=O)[C@H](CCCNC(=N)N)NS(=O)(=O)c1ccc2cc(OC)c(OC)cc2c1` [Sample 53, N^2-(6,7-dimethoxy-2-naphthylsulfonyl)-L-arginyl-N-(2-methoxyethyl) glycine 5-indanyl ester] the figure was 30 µM. With `CCCC(C(=O)O)N(CC(=O)O)C(=O)[C@H](CCCNC(=N)N)NS(=O)(=O)c1ccc2cc(OC)c(OC)cc2c1` (stereo partly drawn) [Sample 54, N^2-(6,7-dimethoxy-2-naphthylsulfonyl)-L-arginyl-N-(1-carboxybutyl)glycine], the “Concentration Required” value stood at 55 µM. As to `COc1cc2ccc(S(=O)(=O)N[C@@H](CCCNC(=N)N)C(=O)N(CC(=O)O)CC(C)OC)cc2cc1OC` (stereo partly drawn) [Sample 55, N^2-(6,7-dimethoxy-2-naphthylsulfonyl)-L-arginyl-N-(2-methoxypropyl)glycine], the “Concentration Required” value is 6.5 µM.

For the molecule `COc1ccc2ccc(S(=O)(=O)N[C@@H](CCCNC(=N)N)C(=O)N(CC[S+](C)[O-])CC(=O)O)cc2c1` (stereo partly drawn) [Sample 57, N^2-(7-methoxy-2-naphthylsulfonyl)-L-arginyl-N-(2-methylsulfinylethyl)glycine], the “Concentration Required” value is 6.5 µM.

For another data set, the system named is mice (male, 20 g). The data set can be described thus: acute toxicity (LD50), intraperitoneal administration in mice. The data set is classed as in vivo.
Conditions: not given
An excerpt:
Representative LD50 values, for example, for N^2 -(6, 7-dimethoxy-2-naphthylsulfonyl)-L-arginyl-N-(2-methoxyethyl)glycine, N^2 -(6, 7-dimethoxy-2-naphthylsulfonyl)-L-arginyl-N-(2-ethoxyethyl)-β-alanine, N^2 -(4, 6-dimethoxy-2-naphthylsulfonyl)-L-arginyl-N-(2-methoxyethyl)glycine, N^2 -(7-methoxy-2-naphthylsulfonyl)-L-arginyl-N-(2-methoxyethyl)glycine are 1,900-2,400, 660-1,000, 660-1,000, 2,000 milligrams per kilogram, respectively.
In the case of `COCCN(CC(=O)O)C(=O)[C@H](CCCNC(=N)N)NS(=O)(=O)c1ccc2cc(OC)c(OC)cc2c1` [Sample 13, N^2-(6,7-dimethoxy-2-naphthylsulfonyl)-L-arginyl-N-(2-methoxyethyl)glycine], the “acute toxicity value (LD50)” value was 1,900-2,400 milligrams per kilogram.

With `CCOCCN(CCC(=O)O)C(=O)[C@H](CCCNC(=N)N)NS(=O)(=O)c1ccc2cc(OC)c(OC)cc2c1` [Sample 21, N^2-(6,7-dimethoxy-2-naphthylsulfonyl)-L-arginyl-N-(2-ethoxyethyl)-β-alanine], the “acute toxicity value (LD50)” value is given as 660-1,000 milligrams per kilogram. On to `COCCN(CC(=O)O)C(=O)[C@H](CCCNC(=N)N)NS(=O)(=O)c1cc(OC)c2cc(OC)ccc2c1` [Sample 23, N^2-(4,6-dimethoxy-2-naphthylsulfonyl)-L-arginyl-N-(2-methoxyethyl)glycine], for which the “acute toxicity value (LD50)” value was 660-1,000 milligrams per kilogram.

As to `COCCN(CC(=O)O)C(=O)[C@H](CCCNC(=N)N)NS(=O)(=O)c1ccc2ccc(OC)cc2c1` [Sample 35, N^2-(7-methoxy-2-naphthylsulfonyl)-L-arginyl-N-(2-methoxyethyl)glycine], the “acute toxicity value (LD50)” value is 2,000 milligrams per kilogram.
